Reference: PMC11215771 (Journal of Medicinal Chemistry, 2024)
Values joined by “and” are separate entries in the source; they are usually repeats but may differ in a detail not shown here. Equal entries are not always repeated.

Experiments:
[1] = FCS of free Alexa-C3 in HBS in the absence of BACE1; settings: 100 nM in HBS, pH 5, no BACE1, mean ± SD
[2] = target: T1, hBACE1 D289N (proteolytic inactive mutant) in HEK293T cells (Homo sapiens, UniProt P56817, D289N); experiment: Staining of transfected HEK293T cells, confocal imaging: BACE1 D289N; assay type: cell-based
T1 construct: expressed in transfected cells; host or cells: HEK293T
Method: (§1) Next, we explored the performance of the new Alexa-C3 compounds in living cells. Because of the rather hydrophilic properties, we exclusively targeted the cell membrane. To prevent intracellular accumulation, we first performed stainings at 4 °C arresting ATP-dependent endocytosis. […] All of the constructs were tagged at the C-terminus with either EGFP or mCherry to visualize subcellular expression. […] With these experiments, we want to exclude that a lack of staining is caused by an impaired accessibility of the protein by Alexa-C3 compounds. […] We then tested samples with BACE1 expression after fixation of the cells with paraformaldehyde (PFA).
(§2) (D) All conjugates were also probed on cells fixed with 4% paraformaldehyde (PFA) for 15 min prior to staining. […] Scale bars represent 5 μm (A–D) and 20 μm (E). […] Samples were excited at 488, 561, and 633 nm, respectively.
(§3) HEK293T cells (ATCC accession number CRL-11268) were maintained in Dulbecco's modified Eagle's medium (Sigma-Aldrich D6046) with 1g/L glucose, supplemented with 10% FCS (Merck) and 1% penicillin/streptomycin (PAA). CHO-K1 cells (ATCC #CCL-61) were maintained in modified phenol red free RPMI-1640 medium (Sigma-Aldrich, R7509), supplemented with 2 mM L-glutamine (Sigma-Aldrich, G7513), and 10% FCS (Merck). Cells were cultured at 37 °C in a 5% CO2 atmosphere. The following plasmids were used for transfection with the amount of DNA indicated (per 35 mm Petri dish): hBACE1 (NM_012104.4), 50 ng for single molecule recordings, 200 ng otherwise; hBACE1 fused to EGFP or mCherry, 75 ng; hBACE1 D289N fused to EGFP or mCherry, 75 ng; hBACE1 D289N, 200–400 ng; hBACE2 (NM_012105.3) fused to EGFP, 75 ng; hCathepsinD (HsCD00438327), Harvard PlasmID, 75 ng. Transfection was performed 24 h after plating using jetPEI (Polyplus) according to the manufacturer’s protocol.
For labeling, we plated HEK293T cells onto sterile 18 mm 1.5H borosilicate coverslips (VWR), coated with poly-D-lysine (Sigma). […]

[3] = target: T2, wild-type hBACE1 in CHO-K1 cells (Homo sapiens, UniProt P56817); experiment: Single molecule TIRF microscopy and bleaching step analysis in CHO-K1 cells; assay type: cell-based; settings: 200 nM probe, fixed CHO-K1, TIRF, after rolling background subtraction
T2 construct: expressed in transfected cells; host or cells: CHO-K1
Method: Due to the high photostability and quantum yield of the Alexa dyes, the C3-compounds are potential tools for single molecule fluorescence microscopy of BACE1. […] CHO-K1 cells were transfected with wild-type BACE1. […] The samples were then recorded using total internal reflection fluorescence (TIRF) microscopy. […] Prior to analysis, ImageJ rolling background subtraction was applied[45] (Figure 6A, right panel). […] Single particles were identified and time traces of fluorescence intensity were extracted using GMimPro[46] (Figure 6B). The time traces were then subjected to a bleaching-step analysis with quickPBSA[47] (Figure 6B). […] The msfGFP was reported previously to display a fluorescence probability of about 50%, defined as combined probability of fluorescence, detection in the specific imaging system and identification in the analysis of a BACE1 molecule.[48] […] Here, the best fits indicated also a fluorescence probability of about 60%, but with a considerably lower fit error compared to dimers only (Figure 6D, blue traces).
The panel in the middle depicts typical single molecule complexes 48 h after transfection with 50 ng wild type BACE1. […] The insets highlight single fluorescence spots at higher magnification. […] (B) Single fluorescence spots were located and fluorescence intensities over time were extracted (see methods). […]

[4] = target: T3, hBACE1 fused to EGFP or mCherry in HEK293T cells (Homo sapiens, UniProt P56817); experiment: Staining of transfected HEK293T cells, confocal imaging: BACE1; assay type: cell-based; settings: living HEK293T, preincubation with 2 μM C3
T3 construct: expressed in transfected cells; host or cells: HEK293T
Method: as §1, §2, §3
For labeling, we plated HEK293T cells onto sterile 18 mm 1.5H borosilicate coverslips (VWR), coated with poly-D-lysine (Sigma). […] In addition, some cells were also fixed with 4% PFA or permeabilized with HBS + 50 μg/mL of Saponin for 15 min prior to staining as stated in the figure legend. After staining, live cells were washed with HBS twice. Confocal imaging was conducted at room temperature in HBS using the 63× objective and the pinhole set to 1 AU. Confocal imaging was performed 24 h after transfection.

[5] = target: recombinant human BACE1 protein (amino acids 1–457, extracellular domain) (Homo sapiens, UniProt P56817); experiment: Fluorescence correlation spectroscopy (FCS) with BACE1 ECD in solution
[6] = Fluorescence spectroscopy, sensitivity to BSA and Expi293F cells
Method: Emission and excitation spectra of all compounds were determined at a concentration of 33 nM in phosphate buffered saline (PBS) using an infinite 200pro (Tecan) with a resolution of 2 nm. […] For sensitivity assessment, we used PBS, PBS + BSA (0.05%), and Expi293F cells in fluorobrite (2 × 10^6 cells/mL).

[7] = target: T4, recombinant BACE1 extracellular domain (Homo sapiens, UniProt P56817); experiment: FRET-based BACE1 inhibition (BACE1-activity FRET) assay; assay type: biochemical
T4 construct: purchased Thermo Fisher Scientific P2985
Method: In addition, we performed a fluorescence resonance energy transfer (FRET)-based BACE1 inhibition assay using the recombinant BACE1 extracellular domain and a BACE1 substrate coupled to a donor fluorophore, which is unquenched […] to the activity of BACE1. […] (Figure 1F).
Protease activity was determined using a FRET-based assay with recombinant BACE1 protein (Thermo Fisher Scientific; P2985). BACE1 inhibition was determined in end-points assays according to the manufacturer’s protocol except using a reduced volume of 12 μL in 384-well plates (Greiner, 788896). […] Fluorescence intensities were quantified with an infinite 200pro reader (Tecan) using top-reading mode. Data points were approximated using a logistic fit to determine half-inhibitory concentrations (pIC50).

[8] = target: BACE-1 (mouse Protein, recombinant) (Mus musculus, UniProt P56818); experiment: Nanotemper (Monolith NT.115) binding analysis; settings: for binding of free acid dyes to recombinant BACE1: 0.1 nM dye, BACE1 0.3–5000 nM
Method: For binding analysis, the Monolith NT.115 (Nanotemper) was used. BACE-1 (mouse Protein, recombinant, life technologies, 50002-M08H-250, LCL10JA2204)) was dissolved in 50 mM HEPES/100 mM NaCl, pH 5 to a concentration of 20 μM. […] Samples were loaded on standard capillaries (Nanotemper, MO-K022) and measured in triplicate at 22 °C, using 1%/60% LED power for Alexa488/Alexa568 and 10% MST power. Fluorescence was plotted against protein concentrations.

[9] = BACE1 concentration 0.305 (unit not given; 0.3–5000 nM), triplicate
[10] = BACE1 concentration 0.61, triplicate
[11] = BACE1 concentration 1.221, triplicate
[12] = BACE1 concentration 2.441, triplicate
[13] = BACE1 concentration 4.883, triplicate
[14] = BACE1 concentration 9.766, triplicate
[15] = BACE1 concentration 19.531, triplicate
[16] = BACE1 concentration 39.062, triplicate
[17] = BACE1 concentration 78.125, triplicate
[18] = BACE1 concentration 156.25, triplicate
[19] = BACE1 concentration 312.5, triplicate
[20] = BACE1 concentration 625, triplicate
[21] = BACE1 concentration 1250, triplicate
[22] = BACE1 concentration 2500, triplicate
[23] = BACE1 concentration 5000, triplicate

BACE-1 (mouse Protein, recombinant), sequence (P56818 46-457 limits assumed): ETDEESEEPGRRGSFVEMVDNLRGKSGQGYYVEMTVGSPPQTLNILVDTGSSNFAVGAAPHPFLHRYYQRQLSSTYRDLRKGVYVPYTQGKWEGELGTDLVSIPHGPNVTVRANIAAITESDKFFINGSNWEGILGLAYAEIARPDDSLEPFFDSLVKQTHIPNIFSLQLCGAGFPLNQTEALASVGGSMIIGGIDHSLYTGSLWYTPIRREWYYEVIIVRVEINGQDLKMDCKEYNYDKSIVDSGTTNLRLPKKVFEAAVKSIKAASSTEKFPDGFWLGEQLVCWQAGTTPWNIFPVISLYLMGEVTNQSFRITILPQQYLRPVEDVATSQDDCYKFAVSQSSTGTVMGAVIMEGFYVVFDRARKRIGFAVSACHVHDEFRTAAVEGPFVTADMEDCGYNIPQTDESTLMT
T4 sequence (P56817 46-457 limits assumed): as the sequence (P56818 46-457 limits assumed) above, with S6P, I162V, I165L, T180S, A182V, V340I, A393L counted along it
recombinant human BACE1 protein (amino acids 1–457, extracellular domain), sequence (P56817 22-457): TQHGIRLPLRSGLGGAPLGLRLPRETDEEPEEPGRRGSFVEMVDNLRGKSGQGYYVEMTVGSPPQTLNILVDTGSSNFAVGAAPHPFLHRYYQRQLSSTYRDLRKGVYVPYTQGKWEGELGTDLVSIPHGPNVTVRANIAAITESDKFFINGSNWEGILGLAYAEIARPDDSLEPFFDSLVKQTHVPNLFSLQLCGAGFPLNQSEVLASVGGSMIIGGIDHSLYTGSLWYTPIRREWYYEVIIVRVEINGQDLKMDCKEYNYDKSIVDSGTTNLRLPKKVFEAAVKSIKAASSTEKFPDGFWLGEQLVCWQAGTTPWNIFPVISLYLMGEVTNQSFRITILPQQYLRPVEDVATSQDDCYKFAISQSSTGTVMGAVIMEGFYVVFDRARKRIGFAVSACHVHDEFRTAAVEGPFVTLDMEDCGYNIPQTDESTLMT
T3 sequence (P56817 46-501): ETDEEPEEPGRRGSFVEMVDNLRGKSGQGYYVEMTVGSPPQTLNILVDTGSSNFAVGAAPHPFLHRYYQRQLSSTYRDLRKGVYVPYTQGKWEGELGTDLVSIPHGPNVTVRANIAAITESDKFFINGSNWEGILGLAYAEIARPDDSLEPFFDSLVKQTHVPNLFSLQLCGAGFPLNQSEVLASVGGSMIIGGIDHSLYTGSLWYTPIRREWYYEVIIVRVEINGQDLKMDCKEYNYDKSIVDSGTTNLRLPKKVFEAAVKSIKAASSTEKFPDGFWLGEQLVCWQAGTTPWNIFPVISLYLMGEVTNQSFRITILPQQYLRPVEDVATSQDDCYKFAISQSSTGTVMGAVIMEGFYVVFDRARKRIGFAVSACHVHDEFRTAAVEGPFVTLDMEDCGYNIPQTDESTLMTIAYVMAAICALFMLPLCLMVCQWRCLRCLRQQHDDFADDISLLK
T2 sequence (P56817 46-501): as above
T1 sequence (P56817 46-501 D289N): as the sequence (P56817 46-501) above, with D244N counted along it

Structure (SMILES)	binding of free acid dyes to recombinant BACE1 [8]	fluorescence reading, single replicates [8, 9]	fluorescence reading, single replicates [8, 10]	fluorescence reading, single replicates [8, 11]	fluorescence reading, single replicates [8, 12]	fluorescence reading, single replicates [8, 13]	fluorescence reading, single replicates [8, 14]	fluorescence reading, single replicates [8, 15]	fluorescence reading, single replicates [8, 16]	fluorescence reading, single replicates [8, 17]	fluorescence reading, single replicates [8, 18]	fluorescence reading, single replicates [8, 19]	fluorescence reading, single replicates [8, 20]	fluorescence reading, single replicates [8, 21]	fluorescence reading, single replicates [8, 22]	fluorescence reading, single replicates [8, 23]	other results
C[C@@H](NC(=O)c1cc(C(=O)N[C@@H](Cc2ccccc2)[C@H](O)CNC2CC2)cc(N(C)S(=O)(=O)CCCNC(=O)c2ccc(C(=O)O)c(C3=c4cc5c(cc4Oc4cc6c(cc43)C(CS(=O)(=O)O)=CC(C)(C)N6)=NC(C)(C)C=C5CS(=O)(=O)O)c2)c1)c1ccccc1	–	–	–	–	–	–	–	–	–	–	–	–	–	–	–	–	diffusion time constant of free probe [1]: 49 ± 2 μs; staining of BACE1 D289N [2]: no appreciable fluorescence; signal-to-background ratio [3]: 5.9; staining of BACE1 after preincubation with unconjugated C3 [4]: no appreciable fluorescence; EC50 [5]: 45.7 nM; diffusion time constant of the second (BACE1-bound, slow) population ([5]; 100 nM probe with BACE1 ECD, pH 5, mean ± SEM, n = 3 preparations): 300 ± 20 μs; increase of fluorescent output in PBS supplemented with BSA ([6]; PBS + BSA (0.05%) vs PBS alone): +228%; increase of fluorescent output in presence of Expi293F cells ([6]; mock Expi293F cells in fluorobrite vs PBS alone): +302%; increase of potency of the pIC50 in a cell-free assay vs parent C3 ([7]; compared with unconjugated C3): 10 fold; IC50 ([7]; logistic fit, n = 3 for each compound, read-out: pIC50 (negative logarithm of the half-inhibitory concentration) (converted)): 2.45 nM
CC1(C)C=C(CS(=O)(=O)O)c2cc3c(cc2=N1)Oc1cc2c(cc1C=3c1cc(C(=O)O)ccc1C(=O)O)C(CS(=O)(=O)O)=CC(C)(C)N2 [Alexa568]	did not observe any indication for affinity	1000.167 and 1000.199 and 1000.049	1000.123 and 1000.132 and 1000.01	1000.102 and 1000.025 and 1000.071	1000.271 and 1000.043 and 1000.008	1000.035 and 1000.075 and 1000.095	999.978 and 999.965 and 1000.148	1000.105 and 1000.065 and 999.949	1000.023 and 999.969 and 1000.096	1000.136 and 1000.189 and 1000.122	1000.014 and 1000.053 and 1000.126	999.991 and 999.997 and 999.948	999.898 and 999.877 and 999.931	999.758 and 999.742 and 999.781	999.645 and 999.707 and 999.65	999.562 and 999.587 and 999.529	–
N=c1ccc2c(-c3cc(C(=O)O)ccc3C(=O)O)c3ccc(N)c(S(=O)(=O)O)c3oc-2c1S(=O)(=O)O [Alexa488]	did not observe any indication for affinity	996.43 and 995.816 and 995.716	995.873 and 995.729 and 996.039	995.788 and 996.299 and 996.353	996.08 and 995.975 and 995.829	996.289 and 995.771 and 996.152	995.856 and 996.198 and 996.218	996.164 and 995.908 and 996.132	996.17 and 996.327 and 995.657	996.076 and 996.3 and 995.686	996.777 and 995.969 and 996.167	996.159 and 995.85 and 996.173	995.972 and 996.54 and 995.887	996.02 and 995.911 and 996.501	996.211 and 996.223 and 996.163	996.477 and 996.486 and 996.65	–
